The numbers were not newly measured in US12115173B2 (Elba Laboratories, priority 2021, dated 2024), which cites them from elsewhere.

Structures are written as SMILES.

On to `O=C(O)CO` [glycolic acid], for which the pKa entry is listed as “about 3.8”.
